In article PMC12598805, “Crystal Structure–Activity Relationship of Some MeO Phenylacrylonitriles: Dual Antimicrobial–Cytotoxic Effects and in Silico Perspectives” (ChemistryOpen, 2025):
Like-named read-outs stand apart in the source and are kept apart here.

What was measured:
Type in all cases: cell-based
[1] = test system: human breast carcinoma (MCF‐7) cells; assay: Cytotoxicity, CCK8 cell viability; settings: for IC50: Homo sapiens, MCF7, read-out: Cytotoxic activity IC50
Description: (§1) We investigated the cytotoxic effects of acrylonitrile derivatives 2(a–c) on human lung carcinoma (A549, CCL‐185) cells purchased from American Culture Collection and human breast carcinoma (MCF‐7) cells purchased from Republic of Turkey Ministry of Agriculture and Forestry Şap Institute, (HUKUK, 00092502), In addition, mouse fibroblast cells (L929, CCL‐1) purchased from American Culture Collection were used to observe the effects of the compounds on healthy cells. In 25 T Flask, A549 cells were grown in dulbecco's modified eagle's medium, MCF‐7, and L929 cells were grown in eagle's minimum essential medium (EMEM), 10% fetal bovine serum and 1% Penicillin‐Streptomycin at 37 °C in a 5% CO2 and 100% humidified incubator. Cell proliferation was checked every day. Cells were taken into the experiment when the cell density reached 70% to 80%. (See Supporting Information for experimental preparation of biological studies).
(§2) The compounds 2a, 2b, and 2c were dissolved in 99.8% Dimethyl sulfoxide (DMSO) respectively, as
(§3) 10 mM main stock. To prepare the doses of acrylonitrile compounds used in the experiment to be
(§4) applied to the cells, five different concentrations of 31.25; 62.5; 125; 250 and 500 μM were prepared
(§5) by diluting the main stock solutions (10 mM) with the medium selected according to the cells. 5-
(§6) Fluorouracil (5-FU) was selected as a positive control in the study. After the 5-FU main stock solution
(§7) was dissolved with DMSO to be 10 mM, the concentrations to be used were diluted with the selected
(§8) media and made ready for the experimental plan. The concentrations used for 5-FU were prepared in
(§9) the same doses used for acrylonitrile derivatives. For the negative control group, groups containing
(§10) only media and no substance were used. Prepared acrylonitrile compounds and 5-FU concentrations
(§11) were added to the wells in three replicates for each dose, and their effects on cell viability at 24 and 48
(§12) Trypan blue solution (Gibco, 1525061) was used to distinguish between living and dead cells in the
(§13) study. Trypan blue passes uncontrollably through the membrane of dead cells that have lost their cell
(§14) membrane integrity and stains the cell blue. Living cells, on the other hand, are not stained because
(§15) Live cell counts were performed using trypan blue using a
(§16) cell counter (Logos Luna II).
(§17) In order to detach the cells adhering to the flasks from the bottom, 500 μL of 0.25% Trypsin-EDTA
(§18) (Gibco, 15400054) solution was added and treated for five minutes.
(§19) detach from the bottom under an inverted microscope (Zeiss Primovert, Germany), medium containing
(§20) 10% FBS was added. After centrifugation at 300 g for 5 minutes and discarding the medium, 1 mL of
(§21) medium was added and the cells were seeded into 96-well culture dishes as 1x10^4 cells in 100 μL per
(§22) Cell Counting Kit 8 (CCK8; Medchem, 146436) was used to determine cell viability. After adding 20 μL
(§23) of CCK8 solution to each well in the dark, 96-well culture dishes were wrapped with aluminum foil and
(§24) kept in a CO2 incubator at 37 °C for 2 hr. Then, it was automatically read with a microplate reader
(§25) (Chromate) at 450 and 630 nm wavelengths. The following formula was used to determine cell
(§26) % Viability = (Sample Well−Blank) (Negative Control−Blank)×100 (1)
(§27) The half-maximal inhibitory concentration (IC50) was calculated as 50% cell death causing dose
(§28) compared to the control group. All data are given as the mean percent fraction of control ± SEM.
(§29) Statistical analysis was done by one-way analysis of variance (ANOVA), followed by Tukey’s multiple
(§30) comparison tests. IBM SPSS Statistics 22 was used to utilize statistical analysis. […]

[2] = test system: human lung carcinoma (A549, CCL‐185) cells; assay: Cytotoxicity, CCK8 cell viability; settings: for suppressive effect on cell proliferation / viability: 31.25 to 500 μM; for cell suppressive effect: concentrations of 31.25, 62.5, 125 and 250 μM; for IC50: Homo sapiens, read-out: Cytotoxic activity IC50
Description: as §1, §2, §3, §4, §5, §6, §7, §8, §9, §10, §11, §12, §13, §14, §15, §16, §17, §18, §19, §20, §21, §22, §23, §24, §25, §26, §27, §28, §29, §30

[3] = test system: Enterococcus faecalis (ATCC 29212); assay: Agar diffusion, zone of inhibition; settings: ATCC29212, E.faecalis, compounds at 50 mg mL^−1
Description: The antibacterial and antifungal activities were reported utilizing the method described by the Clinical & Laboratory Standards Institute.^[ [31], [32] ^] Agar diffusion method was used to determine the antimicrobial activity of the synthesized substances. The media used were mueller hinton agar (MHA) for bacteria and sabouraud‐dextrose agar (SDA) for fungi (Merck), as recommended by the manufacturer.
The synthesized compounds were initially investigated for their antimicrobial activity to elucidate the potential therapeutic utility against various pathogenic microbes using the agar plate diffusion method. The compounds were tested at a concentration of 50 mg mL^−1, and the antibiotics (ampicillin, kanamycin, and amphotericin B) were used at 5 mg mL^−1. […] K.pneumoniae and B.cereus were resistant to ampicillin, while they were susceptible to kanamycin with inhibition values of 30 and 26 mm, respectively. No antimicrobial activity of the compounds was observed against E.faecalis, S.typhimurium, K.pneumoniae, and for the fungus compared to Amphotericin B (20 mm). […]
Enterococcus faecalis (ATCC 29212) […]
ATCC: American Type Culture Collection; NRRL: Northern Regional Research Laboratory The compounds 2(a-c) obtained could only be completely solubilised with dimethyl sulphoxide (DMSO) and the highest possible stock solutions of 50 mg.mL-1 were prepared. To these wells 50 μl of the previously prepared substances were transferred using sterile micropipette tips. For comparison, Ampicillin and kanamycin antibiotics for bacteria and Amphotericin B antibiotics for fungus were used as positive controls and DMSO was used as negative control. The prepared petri plates were kept at +4°C for about 1 hour and then the bacterial cultures were incubated at 37°C for 18-24 hours and mould cultures at 27-30°C for 48-72 hours. The zones formed were measured millimetrically with callipers. The experiments were performed with three repetitions. […]

Compound | IC50 ([1]; MCF‐7, 24 h) [µM] | IC50 ([1]; MCF‐7, 48 h) [µM] | decrease in cell viability ([1]; MCF‐7, 24 h, 31.25 μM) [%] | decrease in cell viability ([1]; MCF‐7, 24 h, 62.5 μM) [%] | decrease in cell viability ([1]; MCF‐7, 24 h, 125 μM) [%] | decrease in cell viability ([1]; MCF‐7, 24 h, 250 μM) [%] | decrease in cell viability ([1]; MCF‐7, 24 h, 500 μM) [%] | decrease in cell viability ([1]; MCF‐7, 48 h, 31.25 μM) [%] | decrease in cell viability ([1]; MCF‐7, 48 h, 62.5 μM) [%] | decrease in cell viability ([1]; MCF‐7, 48 h, 125 μM) [%] | decrease in cell viability ([1]; MCF‐7, 48 h, 250 μM) [%] | decrease in cell viability ([1]; MCF‐7, 48 h, 500 μM) [%] | decrease in cell viability ([2]; A549, 24 h, 500 μM) [%] | suppressive effect on cell proliferation / viability ([2]; A549, 24 h) | cell suppressive effect ([2]; A549, 24 h) | decrease in cell viability ([2]; A549, 48 h, 500 μM) [%] | IC50 ([2]; A549, 24 h) [µM] | IC50 ([2]; A549, 48 h) [µM] | zone of inhibition at 50 mg/mL [3] [mm] | further results
COc1ccc(C=C(C#N)c2ccccc2)cc1 [2a, 3‐(4‐methoxyphenyl)‐2‐phenylacrylonitrile] | 131 | 44 | 32 | 32 | 48 | 75 | 92 | 44 | 60 | 60 | 60 | 99 | 20 | did not show any cytotoxic activity | no cell suppressive effect | 94 | > 500 | 373 | < 6 | decrease in cell viability ([2]; A549, 48 h, 250 μM): 8%
COc1ccc(/C=C(\C#N)c2ccc(F)cc2)cc1 [2b] | 363 | 34 | 23 | 26 | 17 | 23 | 82 | 49 | 68 | 71 | 86 | 91 | 9 | – | no cell suppressive effect | 71 | > 500 | 422 | < 6 | cell suppressive effect ([2]; A549, 48 h): no cell suppressive effect
COc1ccc(/C=C(\C#N)c2cc(C(F)(F)F)cc(C(F)(F)F)c2)cc1 [2c] | 409 | 294 | 9 | 10 | 11 | 17 | 69 | 25 | 27 | 26 | 42 | 85 | – | no suppressive effect | – | 56 | > 500 | 473 | < 6 | –
